The test deals with Collagen I. The test can be described thus: Collagen I release from human dermal fibroblast cells, COL1A1 ELISA of supernatants. The class given is cell-based. The settings on record: 1 mL composition, 24 hours, 37° C., 5% CO2, average of 3 tests. How it is done:
Each of the compositions of Table 3 was tested on human dermal fibroblast cells (Thermo Fisher Scientific, Gaithersburg, Md.) as follows: human dermal fibroblast cells were seeded in 6-well plates and grow until about 80% confluency. 1 mL of each composition was added to the wells in triplicate per composition. The cells were then incubated at 37° C., 5% CO2 for 24 hours and the supernatants were collected and analyzed for Collagen I release. Collagen I release in the supernatants was measured using COL1A1 ELISA kit (MyBioSource, San Diego, Calif.). The data in Table 3 represents the average value for 3 tests.

Consider `NCCS(=O)(=O)O` [Solvent + 0.001% Taurine, Taurine], for which the “Collagen I” value stood at 1.9 ng/mL.

Values taken from patent US11779529B2, “Personal care composition” (Colgate-Palmolive Company, priority 2017, dated 2023).
